Tested on: Notch cellular signaling pathway
Experiment: Notch pathway activity predicted by Bayesian network model from target gene expression, MOLT4 cell line (data set GSE6495)
Type: cell-based, human
Conditions: MOLT4 cells, 48 hours, 5 μM
Description: Herein, an exemplary Bayesian network model as shown in FIG. 2 was used to model the transcriptional program of the Notch cellular signaling pathway in a simple manner. The model consists of three types of nodes: (a) a transcription factor (TF) element (with states “absent” and “present”) in a first layer 1; (b) target genes TG1, TG2, TGn (with states “down” and “up”) in a second layer 2, and; (c) measurement nodes linked to the expression levels of the target genes in a third layer 3. These can be microarray probesets PS1,1, PS1,2, PS1,3, PS2,1, PSn,1, PSn,m (with states “low” and “high”), as preferably used herein, but could also be other gene expression measurements such as RNAseq or RT-qPCR.
A suitable implementation of the mathematical model, herein, the exemplary Bayesian network model, is based on microarray data. The model describes (i) how the expression levels of the target genes depend on the activation of the TF element, and (ii) how probeset intensities, in turn, depend on the expression levels of the respective target genes. For the latter, probeset intensities may be taken from fRMA pre-processed Affymetrix HG-U133Plus2.0 microarrays, which are widely available from the Gene Expression Omnibus (GEO, www.ncbi.nlm.nih.gov/geo) and ArrayExpress (www.ebi.ac.uk/arrayexpress). […]

C[C@H](NC(=O)Cc1cc(F)cc(F)c1)C(=O)N[C@H](C(=O)OC(C)(C)C)c1ccccc1 [DAPT]
Notch cellular signaling pathway activity (odds that the TF element is present) (18 target genes shortlist model, vs untreated (FIG. 11)): decrease in Notch activity
Notch cellular signaling pathway activity (odds that the TF element is present) (26 target genes list model, vs untreated (FIG. 12)): decrease in Notch activity
